# Laboratory results taken from ChEMBL document CHEMBL1201861, “Genomics of Drug Sensitity in Cancer screening data, Wellcome Trust Sanger Institute”.
# Key:
# Experiment in all cases: cells
# [1] = test system: Calu-6; type: functional, cell-based, Homo sapiens; details: Homo sapiens, Calu-6;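 note: growth of human Calu-6 cells, read out by a cell viability assay, IC50 marking inhibition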
# Description: SANGER: Inhibition of human Calu-6 cell growth in a cell viability assay.
# [2] = test system: DB; type: functional, cell-based, Homo sapiens; details: Homo sapiens, DB
# Description: SANGER: Inhibition of human DB cell growth in a cell viability assay.
# [3] = test system: EM-2; type: functional, cell-based, Homo sapiens; details: Homo sapiens, EM-2;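 note: growth inhibition of EM-2 cells, read out with a cell viability assay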
# Description: SANGER: Inhibition of human EM-2 cell growth in a cell viability assay.
# [4] = test system: ES7; type: functional, cell-based, Homo sapiens; details: Homo sapiens, ES7;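 note: growth inhibition of cultured human ES7 cells, read out as cell viability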
# Description: SANGER: Inhibition of human ES7 cell growth in a cell viability assay.
# [5] = test system: GOTO; type: functional, cell-based, Homo sapiens; details: Homo sapiens, GOTO;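 note: growth inhibition of GOTO cells, read out by a cell viability assay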
# Description: SANGER: Inhibition of human GOTO cell growth in a cell viability assay.
# [6] = test system: HCC 2998; type: functional, cell-based, Homo sapiens; details: Homo sapiens, HCC 2998;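 note: growth inhibition of human HCC2998 cells, measured with a cell viability read-out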
# Description: SANGER: Inhibition of human HCC2998 cell growth in a cell viability assay.
# [7] = test system: HDLM-2; type: functional, cell-based, Homo sapiens; details: Homo sapiens, HDLM-2;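 note: cell viability assay measuring suppression of HDLM-2 proliferation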
# Description: SANGER: Inhibition of human HDLM-2 cell growth in a cell viability assay.
# [8] = test system: IST-SL1; type: functional, cell-based, Homo sapiens; details: Homo sapiens, IST-SL1;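 note: growth inhibition of human IST-SL1 cells, read out with a cell viability assay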
# Description: SANGER: Inhibition of human IST-SL1 cell growth in a cell viability assay.
# [9] = test system: K562; type: functional, cell-based, Homo sapiens; details: Homo sapiens, K562
# Description: SANGER: Inhibition of human K-562 cell growth in a cell viability assay.
# [10] = test system: KP-N-YS; type: functional, cell-based, Homo sapiens; details: Homo sapiens, KP-N-YS;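 note: cell viability assay measuring inhibition of cell line growth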
# Description: SANGER: Inhibition of human KP-N-YS cell growth in a cell viability assay.
# [11] = test system: KS-1; type: functional, cell-based, Homo sapiens; details: Homo sapiens, KS-1;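 note: growth inhibition of KS-1 cells, read out with a cell viability assay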
# Description: SANGER: Inhibition of human KS-1 cell growth in a cell viability assay.
# [12] = test system: KU812 cell line; type: functional, cell-based, Homo sapiens; details: Homo sapiens, KU812;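 note: growth inhibition of KU812 cells, read out with a cell viability assay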
# Description: SANGER: Inhibition of human KU812 cell growth in a cell viability assay.
# [13] = test system: KY821; type: functional, cell-based, Homo sapiens; details: Homo sapiens, KY821;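 note: growth inhibition of human KY821 cells, read out by a cell viability assay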
# Description: SANGER: Inhibition of human KY821 cell growth in a cell viability assay.
# [14] = test system: L-428; type: functional, cell-based, Homo sapiens; details: Homo sapiens, L-428
# Description: SANGER: Inhibition of human L-428 cell growth in a cell viability assay.
# [15] = test system: LAN-6; type: functional, cell-based, Homo sapiens; details: Homo sapiens, LAN-6;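 note: growth inhibition of LAN-6 cells, determined with a cell viability assay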
# Description: SANGER: Inhibition of human LAN-6 cell growth in a cell viability assay.
# [16] = test system: LB2241-RCC; type: functional, cell-based, Homo sapiens; details: Homo sapiens, LB2241-RCC;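 note: cell viability assay measuring how strongly the cultured human renal carcinoma line is prevented from growing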
# Description: SANGER: Inhibition of human LB2241-RCC cell growth in a cell viability assay.
# [17] = test system: LS-513; type: functional, cell-based, Homo sapiens; details: Homo sapiens, LS-513
# Description: SANGER: Inhibition of human LS-513 cell growth in a cell viability assay.
# [18] = test system: MFH-ino; type: functional, cell-based, Homo sapiens; details: Homo sapiens, MFH-ino;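 note: growth inhibition of human MFH-ino cells, read out by a cell viability assay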
# Description: SANGER: Inhibition of human MFH-ino cell growth in a cell viability assay.
# [19] = test system: ML-2; type: functional, cell-based, Homo sapiens; details: Homo sapiens, ML-2;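 note: growth inhibition of ML-2 cells, measured with a cell viability readout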
# Description: SANGER: Inhibition of human ML-2 cell growth in a cell viability assay.
# [20] = test system: MPP-89; type: functional, cell-based, Homo sapiens; details: Homo sapiens, MPP-89;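 note: growth inhibition of human MPP-89 cells, read out with a cell viability assay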
# Description: SANGER: Inhibition of human MPP-89 cell growth in a cell viability assay.
# [21] = test system: MV4-11; type: functional, cell-based, Homo sapiens, MV-4-11; details: Homo sapiens, MV4-11;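 note: cell viability readout measuring growth inhibition of human MV-4-11 cells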
# Description: SANGER: Inhibition of human MV-4-11 cell growth in a cell viability assay.
# [22] = test system: MZ2-MEL; type: functional, cell-based, Homo sapiens; details: Homo sapiens, MZ2-MEL;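 note: growth inhibition of MZ2-MEL cells read out with a cell viability assay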
# Description: SANGER: Inhibition of human MZ2-MEL cell growth in a cell viability assay.
# [23] = test system: MZ7-mel; type: functional, cell-based, Homo sapiens; details: Homo sapiens, MZ7-mel;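 note: growth inhibition of human MZ7-mel cells, measured by a cell viability assay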
# Description: SANGER: Inhibition of human MZ7-mel cell growth in a cell viability assay.
# [24] = test system: Mo; type: functional, cell-based, Homo sapiens; details: Homo sapiens, Mo
# Description: SANGER: Inhibition of human Mo-T cell growth in a cell viability assay.
# [25] = test system: NB17; type: functional, cell-based, Homo sapiens; details: Homo sapiens, NB17;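 note: growth inhibition of NB17 cells, read out with a cell viability assay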
# Description: SANGER: Inhibition of human NB17 cell growth in a cell viability assay.
# [26] = test system: NB69; type: functional, cell-based, Homo sapiens; details: Homo sapiens, NB69;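 note: growth inhibition of NB69 cells, determined by a cell viability assay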
# Description: SANGER: Inhibition of human NB69 cell growth in a cell viability assay.
# [27] = test system: NCI-H1304; type: functional, cell-based, Homo sapiens; details: Homo sapiens, NCI-H1304;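 note: growth inhibition of the cancer cell line, measured in a cell viability assay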
# Description: SANGER: Inhibition of human NCI-H1304 cell growth in a cell viability assay.
# [28] = test system: NCI-H1395; type: functional, cell-based, Homo sapiens; details: Homo sapiens, NCI-H1395;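 note: cell viability assay read-out quantifying reduced proliferation of human NCI-H1395 cells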
# Description: SANGER: Inhibition of human NCI-H1395 cell growth in a cell viability assay.
# [29] = test system: NCI-H1838; type: functional, cell-based, Homo sapiens; details: Homo sapiens, NCI-H1838;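 note: growth inhibition of NCI-H1838 cells, determined with a cell viability readout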
# Description: SANGER: Inhibition of human NCI-H1838 cell growth in a cell viability assay.
# [30] = test system: NCI-H2126; type: functional, cell-based, Homo sapiens; details: Homo sapiens, NCI-H2126;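 note: growth inhibition of the cancer cell line, determined with a cell viability readout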
# Description: SANGER: Inhibition of human NCI-H2126 cell growth in a cell viability assay.
# [31] = test system: NCI-H720; type: functional, cell-based, Homo sapiens; details: Homo sapiens, NCI-H720;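 note: growth inhibition of human NCI-H720 cells determined by a cell viability assay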
# Description: SANGER: Inhibition of human NCI-H720 cell growth in a cell viability assay.
# [32] = test system: SNU1; type: functional, cell-based, Homo sapiens; details: Homo sapiens, SNU1;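 note: growth inhibition of human NCI-SNU-1 cells, measured with a cell viability assay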
# Description: SANGER: Inhibition of human NCI-SNU-1 cell growth in a cell viability assay.
# [33] = test system: NOS-1; type: functional, cell-based, Homo sapiens; details: Homo sapiens, NOS-1;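 note: growth inhibition of the human NOS-1 cell line, read out with a cell viability assay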
# Description: SANGER: Inhibition of human NOS-1 cell growth in a cell viability assay.
# [34] = test system: NTERA-2-cl-D1; type: functional, cell-based, Homo sapiens; details: Homo sapiens, NTERA-2-cl-D1;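 note: inhibition of cell growth, measured with a cell viability assay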
# Description: SANGER: Inhibition of human NTERA-S-cl-D1 cell growth in a cell viability assay.
# [35] = test system: OCUB-M; type: functional, cell-based, Homo sapiens; details: Homo sapiens, OCUB-M;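 note: growth inhibition of the cancer cell line, read out through a cell viability assay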
# Description: SANGER: Inhibition of human OCUB-M cell growth in a cell viability assay.
# [36] = test system: ONS-76; type: functional, cell-based, Homo sapiens; details: Homo sapiens, ONS-76;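 note: growth inhibition of human ONS-76 cells, read out with a cell viability assay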
# Description: SANGER: Inhibition of human ONS-76 cell growth in a cell viability assay.
# [37] = test system: P30-OHK; type: functional, cell-based, Homo sapiens; details: Homo sapiens, P30-OHK;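 note: growth inhibition of the P30-OHK cell line, read out with a cell viability assay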
# Description: SANGER: Inhibition of human P30-OHK cell growth in a cell viability assay.
# [38] = test system: SF-126; type: functional, cell-based, Homo sapiens; details: Homo sapiens, SF-126;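 note: growth inhibition of human SF126 cells, read out with a cell viability assay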
# Description: SANGER: Inhibition of human SF126 cell growth in a cell viability assay.
# [39] = test system: SF-539; type: functional, cell-based, Homo sapiens; details: Homo sapiens, SF-539;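 note: Read-out is a cell viability assay, with IC50 reflecting inhibition of cell growth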
# Description: SANGER: Inhibition of human SF539 cell growth in a cell viability assay.
# [40] = test system: SW872; type: functional, cell-based, Homo sapiens; details: Homo sapiens, SW872;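 note: growth inhibition of SW872 cells, read out by a viability assay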
# Description: SANGER: Inhibition of human SW872 cell growth in a cell viability assay.
# [41] = test system: 697; type: functional, cell-based, Homo sapiens; details: Homo sapiens
# Description: SANGER: Inhibition of human 697 cell growth in a cell viability assay.
# [42] = test system: 8-MG-BA; type: functional, cell-based, Homo sapiens; details: Homo sapiens, 8-MG-BA;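 note: growth inhibition of 8-MG-BA cells, read out with a cell viability assay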
# Description: SANGER: Inhibition of human 8-MG-BA cell growth in a cell viability assay.
# [43] = test system: A253 cell line; type: functional, cell-based, Homo sapiens; details: Homo sapiens, A253;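 note: growth inhibition of A253 cells, read out with a cell viability assay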
# Description: SANGER: Inhibition of human A253 cell growth in a cell viability assay.
# [44] = test system: A3-KAW; type: functional, cell-based, Homo sapiens; details: Homo sapiens, A3-KAW;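 note: growth inhibition of human A3-KAW cells, read out with a cell viability assay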
# Description: SANGER: Inhibition of human A3-KAW cell growth in a cell viability assay.
# [45] = test system: BB49-HNC; type: functional, cell-based, Homo sapiens; details: Homo sapiens, BB49-HNC;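 note: cell viability assay read-out, reported as inhibition of BB49-HNC cell growth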
# Description: SANGER: Inhibition of human BB49-HNC cell growth in a cell viability assay.
# [46] = test system: TGBC1TKB; type: functional, cell-based, Homo sapiens; details: Homo sapiens, TGBC1TKB;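 note: growth inhibition of TGBC1TKB cells, read out by a cell viability assay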
# Description: SANGER: Inhibition of human TGBC1TKB cell growth in a cell viability assay.
# [47] = test system: CAS-1; type: functional, cell-based, Homo sapiens; details: Homo sapiens, CAS-1;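 note: growth inhibition of CAS-1 cells, measured with a cell viability assay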
# Description: SANGER: Inhibition of human CAS-1 cell growth in a cell viability assay.
# [48] = test system: CGTH-W-1; type: functional, cell-based, Homo sapiens; details: Homo sapiens, CGTH-W-1;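 note: growth inhibition of human CGTH-W-1 cells measured by cell viability assay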
# Description: SANGER: Inhibition of human CGTH-W-1 cell growth in a cell viability assay.
# [49] = test system: HCE-4; type: functional, cell-based, Homo sapiens; details: Homo sapiens, HCE-4;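 note: cell viability assay measuring inhibition of growth in the human HCE-4 cell line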
# Description: SANGER: Inhibition of human HCE-4 cell growth in a cell viability assay.
structure (smiles),measurement,setting,value
COc1cc(N2CCN(C)CC2)ccc1Nc1ncc2c(n1)N(C)c1ccccc1C(=O)N2C,IC50,[1],> 8000 nM
same,IC50,[2],> 8000 nM
same,IC50,[3],> 8000 nM
same,IC50,[4],> 8000 nM
same,IC50,[5],> 8000 nM
same,IC50,[6],> 8000 nM
same,IC50,[7],> 8000 nM
same,IC50,[8],> 8000 nM
same,IC50,[9],> 8000 nM
same,IC50,[10],> 8000 nM
same,IC50,[11],5380 nM
same,IC50,[12],7.43 µM
same,IC50,[13],> 8 µM
same,IC50,[14],> 8000 nM
same,IC50,[15],7.97 µM
same,IC50,[16],> 8000 nM
same,IC50,[17],5.86 µM
same,IC50,[18],> 8000 nM
same,IC50,[19],7.33 µM
same,IC50,[20],4.5 µM
same,IC50,[21],1610 nM
same,IC50,[22],> 8000 nM
same,IC50,[23],7540 nM
same,IC50,[24],> 8000 nM
same,IC50,[25],> 8000 nM
same,IC50,[26],7850 nM
same,IC50,[27],> 8 µM
same,IC50,[28],> 8000 nM
same,IC50,[29],> 8000 nM
same,IC50,[30],> 8000 nM
same,IC50,[31],> 8000 nM
same,IC50,[32],> 8000 nM
same,IC50,[33],3570 nM
same,IC50,[34],4560 nM
same,IC50,[35],> 8000 nM
same,IC50,[36],> 8000 nM
same,IC50,[37],> 8000 nM
same,IC50,[38],> 8000 nM
same,IC50,[39],> 8000 nM
same,IC50,[40],> 8000 nM
same,IC50,[41],654 nM
same,IC50,[42],> 8000 nM
same,IC50,[43],> 8 µM
same,IC50,[44],4280 nM
same,IC50,[45],> 8000 nM
same,IC50,[46],> 8000 nM
same,IC50,[47],> 8000 nM
same,IC50,[48],> 8000 nM
C#Cc1cccc(Nc2ncnc3cc(OCCOC)c(OCCOC)cc23)c1 [ERLOTINIB],IC50,[1],> 2000 nM
same,IC50,[3],> 2000 nM
same,IC50,[4],> 2000 nM
same,IC50,[5],> 2000 nM
same,IC50,[6],> 2000 nM
same,IC50,[7],> 2000 nM
same,IC50,[8],> 2000 nM
same,IC50,[9],> 2000 nM
same,IC50,[10],> 2000 nM
same,IC50,[11],> 2000 nM
same,IC50,[12],> 2 µM
same,IC50,[14],> 2000 nM
same,IC50,[15],> 2 µM
same,IC50,[16],> 2000 nM
same,IC50,[17],> 2 µM
same,IC50,[18],> 2000 nM
same,IC50,[19],> 2 µM
same,IC50,[20],> 2 µM
same,IC50,[22],> 2000 nM
same,IC50,[23],> 2000 nM
same,IC50,[24],> 2000 nM
same,IC50,[25],> 2000 nM
same,IC50,[26],> 2000 nM
same,IC50,[28],> 2000 nM
same,IC50,[29],> 2000 nM
same,IC50,[30],> 2000 nM
same,IC50,[31],> 2000 nM
same,IC50,[32],> 2000 nM
same,IC50,[33],> 2000 nM
same,IC50,[34],> 2000 nM
same,IC50,[35],> 2000 nM
same,IC50,[36],> 2000 nM
same,IC50,[37],> 2000 nM
same,IC50,[38],> 2000 nM
same,IC50,[39],> 2000 nM
same,IC50,[40],> 2000 nM
same,IC50,[41],> 2000 nM
same,IC50,[42],> 2000 nM
same,IC50,[43],> 2 µM
same,IC50,[44],> 2000 nM
same,IC50,[45],> 2000 nM
same,IC50,[46],> 2000 nM
same,IC50,[47],> 2000 nM
same,IC50,[48],> 2000 nM
CO[C@H]1C[C@@H]2CC[C@@H](C)[C@@](O)(O2)C(=O)C(=O)N2CCCC[C@H]2C(=O)O[C@H]([C@H](C)C[C@@H]2CC[C@@H](OC(=O)C(C)(CO)CO)[C@H](OC)C2)CC(=O)[C@H](C)/C=C(\C)[C@@H](O)[C@@H](OC)C(=O)[C@H](C)C[C@H](C)/C=C/C=C/C=C/1C [TEMSIROLIMUS],IC50,[1],> 200 nM
same,IC50,[2],3.12 nM
same,IC50,[3],54.2 nM
same,IC50,[4],85.9 nM
same,IC50,[5],> 200 nM
same,IC50,[6],> 200 nM
same,IC50,[49],> 200 nM
same,IC50,[7],> 200 nM
same,IC50,[8],> 200 nM
same,IC50,[9],> 200 nM
same,IC50,[10],> 200 nM
same,IC50,[11],63.5 nM
same,IC50,[12],> 0.2 µM
same,IC50,[13],> 0.2 µM
same,IC50,[14],> 200 nM
same,IC50,[15],> 0.2 µM
same,IC50,[16],39.3 nM
same,IC50,[17],> 0.2 µM
same,IC50,[18],> 200 nM
same,IC50,[19],> 0.2 µM
same,IC50,[20],> 0.2 µM
same,IC50,[21],18.9 nM
same,IC50,[22],56.9 nM
same,IC50,[23],161 nM
same,IC50,[24],> 200 nM
same,IC50,[25],> 200 nM
same,IC50,[26],9.46 nM
same,IC50,[27],> 0.2 µM
same,IC50,[28],> 200 nM
same,IC50,[29],> 200 nM
same,IC50,[30],58 nM
same,IC50,[31],9.62 nM
same,IC50,[32],4.81 nM
same,IC50,[33],> 200 nM
same,IC50,[34],20.7 nM
same,IC50,[35],> 200 nM
same,IC50,[36],33 nM
same,IC50,[37],> 200 nM
same,IC50,[38],22.9 nM
same,IC50,[39],121 nM
same,IC50,[40],> 200 nM
same,IC50,[41],1.7 nM
same,IC50,[42],> 200 nM
same,IC50,[44],10.4 nM
same,IC50,[45],> 200 nM
same,IC50,[46],137 nM
same,IC50,[47],> 200 nM
same,IC50,[48],5.75 nM
